Laboratory results published in US20130288989A1, “NEW USE OF CHEMICAL INGREDIENTS IN CYNOMORIUM AS PHYTOESTROGEN” (TIANJIN UNIVERSITY OF TRADITIONAL CHINESE MEDICINE, priority 2010, published 2013).
“Also recorded” adds a separate entry of the source.

How the values were obtained:
Type in all cases: cell-based
[1] = biological target: T1, ERα (Homo sapiens, UniProt P03372); assay: ERα luciferase reporter gene transcription activation in transfected Hela cells; conditions: for ERα (% of the control) mean ± S.D. / ERα (% of estradiol): Hela cells; for ERα (% of the control) mean ± S.D.: 24 h; for ERα (% of estradiol): estradiol at 10^−8M; for concentration at which the transcriptional activity of ERα is agonized: luciferase reporter gene
T1 construct: expressed in transfected cells; host or cells: Hela cells (ER expression free)
T1 sequence (P03372 1-595): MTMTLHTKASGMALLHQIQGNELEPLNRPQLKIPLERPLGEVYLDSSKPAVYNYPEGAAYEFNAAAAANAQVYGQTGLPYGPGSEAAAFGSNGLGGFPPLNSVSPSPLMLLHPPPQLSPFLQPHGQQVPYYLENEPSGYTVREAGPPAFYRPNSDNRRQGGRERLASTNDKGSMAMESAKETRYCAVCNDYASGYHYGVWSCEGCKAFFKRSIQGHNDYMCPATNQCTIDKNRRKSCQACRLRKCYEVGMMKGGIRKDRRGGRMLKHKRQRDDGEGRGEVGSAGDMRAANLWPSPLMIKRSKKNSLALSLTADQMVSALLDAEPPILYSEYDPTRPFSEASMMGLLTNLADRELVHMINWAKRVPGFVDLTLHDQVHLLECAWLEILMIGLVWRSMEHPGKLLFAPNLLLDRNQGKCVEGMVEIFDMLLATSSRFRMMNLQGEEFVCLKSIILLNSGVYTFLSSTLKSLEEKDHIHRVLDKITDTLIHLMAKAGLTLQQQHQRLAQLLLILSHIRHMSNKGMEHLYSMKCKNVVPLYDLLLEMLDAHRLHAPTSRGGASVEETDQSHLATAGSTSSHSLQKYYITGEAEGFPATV
From the text: (§1) Actually, estrogens show their biological activity by regulating estrogen responding genetic transcription.
(§2) Formulation of sample solutions of catechin, (−)epicatechin-3-O-gallate, naringenin-4′-O-glucoside, phlorizin, emodin, chrysophanol (separately obtained from Example 1):
(§3) Catechin, (−)epicatechin-3-O-gallate, naringenin-4′-O-glucoside, phlorizin, emodin, chrysophanol in corresponding weights were separately weighed precisely, than added with DMSO for dissolution, the corresponding sample solution high dose groups (10 μM or 1 μM), were diluted in certain times to separately obtain low dose groups (1 μM to 0.001 μM).
(§4) Under condition of 37° C. and 5% CO2, Hela cells were cultured in phenol red-free high sugar DMEM culture medium containing 10% calf serum in incubator, the cells were spread in 60% density on 96-well plate when cell density was about 90%, each well was added with 150 ul of phenol red-free DMEM culture medium containing 10% serum, cultivation was performed overnight. To each well of the 96-well plate, 100 ul of serum-free DMEM culture medium and 0.4 μg plasmid (ptk-ERE-luc 2 μg, tk-Renila 1 μg, ERα or ERβ 1 μg) were used for transfection. After 6 h of transfection, each well was added with 150 ul of serum-free phenol red-free DMEM culture medium. Three wells were selected form each group, added with 10^−8M estradiol E2, and substance to be tested in different concentrations, 15 ul/well (sample 4-5 concentration gradient groups), continuously cultured under condition of 37° C., 5% CO2 for 24 h. After 24 h, each well was added with 80 μl of cell disruption solution, and the cells were subjected to freeze thawing once to be sufficiently disrupted. As for the cell lysis solution of each well, its activities to firefly luciferase and Renila luciferase were separately measured.

[2] = biological target: T2, ERβ (Homo sapiens, UniProt Q92731); assay: ERβ luciferase reporter gene transcription activation in transfected Hela cells; conditions: for ERβ (% of the control) mean ± S.D. / ERβ (% of estradiol): Hela cells; for ERβ (% of the control) mean ± S.D.: 24 h; for ERβ (% of estradiol): estradiol at 10^−8M; for concentration at which the transcriptional activity of ERβ is agonized: luciferase reporter gene
T2 construct: expressed in transfected cells; host or cells: Hela cells (ER expression free)
From the text: as §1, §2, §3, §4

[3] = system: estrogen receptor; assay: Estrogen receptor activation test: overall estrogen activity and ERβ versus ERα comparison; conditions: for ERβ/ERα (both % of estradiol at 10^−8M): Hela cells; for estrogen activity / estrogen receptor activation (in words): estradiol as positive control; for selectivity to receptor subtypes (ERα vs ERβ): result in words
Experimental: as §1, §4

T2 sequence (Q92731 whole entry): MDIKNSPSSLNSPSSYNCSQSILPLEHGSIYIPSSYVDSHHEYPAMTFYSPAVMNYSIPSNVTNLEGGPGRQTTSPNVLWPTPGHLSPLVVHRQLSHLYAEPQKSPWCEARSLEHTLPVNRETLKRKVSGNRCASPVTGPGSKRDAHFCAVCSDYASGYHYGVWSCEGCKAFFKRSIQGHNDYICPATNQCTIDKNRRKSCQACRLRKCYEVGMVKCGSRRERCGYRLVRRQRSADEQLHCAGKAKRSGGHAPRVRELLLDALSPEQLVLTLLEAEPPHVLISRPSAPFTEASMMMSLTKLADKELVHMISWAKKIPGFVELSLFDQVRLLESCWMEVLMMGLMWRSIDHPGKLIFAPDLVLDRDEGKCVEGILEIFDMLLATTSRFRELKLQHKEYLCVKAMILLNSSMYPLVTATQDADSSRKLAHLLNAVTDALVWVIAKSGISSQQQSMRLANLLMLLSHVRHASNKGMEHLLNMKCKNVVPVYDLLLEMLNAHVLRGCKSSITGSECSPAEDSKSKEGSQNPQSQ

catechin
ERα (% of the control) mean ± S.D. ([1]; 10^−5 M): 128.00 ± 8.74 % of the control
ERα (% of estradiol) ([1]; 10^−5 M): (60.23) % of estradiol
ERα (% of the control) mean ± S.D. ([1]; 10^−6 M): 108.85 ± 8.87 % of the control
ERα (% of estradiol) ([1]; 10^−6 M): (51.22) % of estradiol
ERα (% of the control) mean ± S.D. ([1]; 10^−7 M): 106.72 ± 12.84 % of the control
ERα (% of estradiol) ([1]; 10^−7 M): (50.22) % of estradiol
ERα (% of the control) mean ± S.D. ([1]; 10^−8 M): 102.89 ± 10.21 % of the control
ERα (% of estradiol) ([1]; 10^−8 M): (48.42) % of estradiol
concentration at which the transcriptional activity of ERα is agonized [1]: 10^−5 M
ERβ (% of the control) mean ± S.D. ([2]; 10^−5 M): 115.59 ± 13.39 % of the control
ERβ (% of estradiol) ([2]; 10^−5 M): (59.86) % of estradiol
ERβ (% of the control) mean ± S.D. ([2]; 10^−6 M): 103.71 ± 9.07 % of the control
ERβ (% of estradiol) ([2]; 10^−6 M): (53.71) % of estradiol
ERβ (% of the control) mean ± S.D. ([2]; 10^−7 M): 102.57 ± 1.04 % of the control
ERβ (% of estradiol) ([2]; 10^−7 M): (53.12) % of estradiol
ERβ (% of the control) mean ± S.D. ([2]; 10^−8 M): 101.93 ± 2.27 % of the control
ERβ (% of estradiol) ([2]; 10^−8 M): (52.79) % of estradiol
concentration at which the transcriptional activity of ERβ is agonized [2]: 10^−5 M
ERβ/ERα (both % of estradiol at 10^−8M) ([3]; sample 10^−5 M): 1.28
ERβ/ERα (both % of estradiol at 10^−8M) ([3]; sample 10^−6 M): 1.05
ERβ/ERα (both % of estradiol at 10^−8M) ([3]; sample 10^−7 M): 1.06
ERβ/ERα (both % of estradiol at 10^−8M) ([3]; sample 10^−8 M): 1.09
estrogen activity / estrogen receptor activation (in words) [3]: show relevance to estrogen receptor activation; also recorded: potent activity of estrogen
selectivity to receptor subtypes (ERα vs ERβ) [3]: no significant selectivity to receptor subtypes

Cc1cc(O)c2c(c1)C(=O)c1cc(O)cc(O)c1C2=O [Emodin, emodin]
ERα (% of the control) mean ± S.D. ([1]; 10^−6 M): 146.40 ± 18.07 % of the control
ERα (% of estradiol) ([1]; 10^−6 M): (64.01) % of estradiol
ERα (% of the control) mean ± S.D. ([1]; 10^−7 M): 109.96 ± 11.33 % of the control
ERα (% of estradiol) ([1]; 10^−7 M): (48.07) % of estradiol
ERα (% of the control) mean ± S.D. ([1]; 10^−8 M): 108.48 ± 27.45 % of the control
ERα (% of estradiol) ([1]; 10^−8 M): (47.43) % of estradiol
ERα (% of the control) mean ± S.D. ([1]; 10^−9 M): 101.27 ± 15.90 % of the control
ERα (% of estradiol) ([1]; 10^−9 M): (44.27) % of estradiol
concentration at which the transcriptional activity of ERα is agonized [1]: 10^−6 M
ERβ (% of the control) mean ± S.D. ([2]; 10^−6 M): 145.21 ± 8.06 % of the control
ERβ (% of estradiol) ([2]; 10^−6 M): (65.63) % of estradiol
ERβ (% of the control) mean ± S.D. ([2]; 10^−7 M): 106.60 ± 10.76 % of the control
ERβ (% of estradiol) ([2]; 10^−7 M): (48.18) % of estradiol
ERβ (% of the control) mean ± S.D. ([2]; 10^−8 M): 104.92 ± 9.08 % of the control
ERβ (% of estradiol) ([2]; 10^−8 M): (47.42) % of estradiol
ERβ (% of the control) mean ± S.D. ([2]; 10^−9 M): 104.68 ± 13.96 % of the control
ERβ (% of estradiol) ([2]; 10^−9 M): 47.31 % of estradiol
concentration at which the transcriptional activity of ERβ is agonized [2]: 10^−6 M
ERβ/ERα (both % of estradiol at 10^−8M) ([3]; sample 10^−6 M): 1.03
ERβ/ERα (both % of estradiol at 10^−8M) ([3]; sample 10^−7 M): 1.00
ERβ/ERα (both % of estradiol at 10^−8M) ([3]; sample 10^−8 M): 1.00
ERβ/ERα (both % of estradiol at 10^−8M) ([3]; sample 10^−9 M): 1.07
estrogen activity / estrogen receptor activation (in words) [3]: show relevance to estrogen receptor activation
selectivity to receptor subtypes (ERα vs ERβ) [3]: no receptor selectivity
